The text below walks through data of patent US5663194A, “Chroman-2-ylmethylamino derivatives” (priority 1996, dated 1997).

Molecules are shown by their SMILES.

One experiment concerns α1. Put plainly: α1. Format: binding.
Experiment [1] deals with T1, dopamine autoreceptor (D2) (Rattus norvegicus, UniProt P61169).
T1 construct: homogenized rat striatal brain tissue is incubated with; from tissue; host or cells: rat striatal brain tissue, homogenized
The experiment can be described thus: Affinity for the dopamine autoreceptor: 3H-quinpirole (Quin.) binding in homogenized rat striatal brain tissue.

Another experiment deals with T2, dopamine D-2 receptor (Rattus norvegicus, UniProt P61169).
T2 construct: homogenized limbic brain tissue is incubated with; from tissue; host or cells: limbic brain tissue, homogenized
The experiment can be described thus: Affinity for the dopamine D-2 receptor: 3H-spiroperidol (Spiper.) binding in homogenized limbic brain tissue. To be noted: read-out: IC50 D2 Spiper.

In the next experiment the target is T3, 5-HT1a (Homo sapiens, UniProt P08908).
T3 sequence (P08908 1-422): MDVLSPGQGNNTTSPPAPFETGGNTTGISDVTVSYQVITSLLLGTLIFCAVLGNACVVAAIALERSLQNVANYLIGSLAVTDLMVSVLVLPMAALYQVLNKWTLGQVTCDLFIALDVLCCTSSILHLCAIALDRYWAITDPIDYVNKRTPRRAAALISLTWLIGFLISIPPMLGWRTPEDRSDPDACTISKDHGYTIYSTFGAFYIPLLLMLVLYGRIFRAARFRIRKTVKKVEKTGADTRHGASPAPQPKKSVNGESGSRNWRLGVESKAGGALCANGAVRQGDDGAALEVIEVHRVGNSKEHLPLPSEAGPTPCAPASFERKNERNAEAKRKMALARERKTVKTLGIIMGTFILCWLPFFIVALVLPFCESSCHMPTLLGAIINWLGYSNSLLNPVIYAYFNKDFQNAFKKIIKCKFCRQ
The experiment can be described thus: 5-HT1a. Format: binding.

T1 sequence (P61169 whole entry): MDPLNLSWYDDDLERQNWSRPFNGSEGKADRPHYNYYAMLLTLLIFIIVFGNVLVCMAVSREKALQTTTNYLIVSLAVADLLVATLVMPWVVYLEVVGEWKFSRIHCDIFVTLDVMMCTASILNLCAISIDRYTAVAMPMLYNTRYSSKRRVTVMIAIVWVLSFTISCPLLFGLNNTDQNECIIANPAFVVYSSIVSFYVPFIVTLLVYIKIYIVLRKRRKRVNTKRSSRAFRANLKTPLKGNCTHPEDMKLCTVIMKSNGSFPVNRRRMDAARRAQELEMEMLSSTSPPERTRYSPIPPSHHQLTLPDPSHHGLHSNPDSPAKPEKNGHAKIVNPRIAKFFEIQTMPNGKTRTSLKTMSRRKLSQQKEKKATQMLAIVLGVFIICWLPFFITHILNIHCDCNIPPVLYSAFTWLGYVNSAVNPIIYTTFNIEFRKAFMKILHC
T2 sequence (P61169 whole entry): as above

Broadly, the IC50 is the concentration that inhibits the measured activity by half. For `CCCNCC1CCc2ccc(NS(C)(=O)=O)cc2O1` (centres unmarked) [Example 1c, N-(2-Propylaminomethyl-chroman-7-yl)-methanesulfonamide], the IC50 turned out to be 1420 nM in the experiment with α1, 184 nM in experiment [1], 4860 nM at dopamine D-2 receptor and 218 nM against 5-HT1a.

`c1ccc(CNCC2CCc3ccccc3O2)cc1` (centres unmarked) [reference compound]: the 50% inhibitory concentration (IC50) with α1 stood at 630 nM.
